Measurements reported in US6756342B1, “Substituted thienocycloalk(en) ylamino -1,3,5-triazine” (priority 1999, dated 2004).
Counter-ions that a name gives are not always drawn.

Legend:
[1] = logP determination by reversed-phase HPLC (EEC Directive 79/831 Annex V.A8); format: physicochemical; conditions: reversed-phase C18 HPLC column; a) acidic range: 0.1% aqueous phosphoric acid/acetonitrile gradient, C18, 43° C.
Procedure: The logP values given in Example 1 and in Table 1 were determined in accordance with EEC Directive 79/831 Annex V.A^8 by HPLC (High Performance Liquid Chromatography) using a reversed-phase column (C 18). Temperature: 43° C.
(a) Mobile phases for the determination in the acidic range: 0.1% aqueous phosphoric acid, acetonitrile; linear gradient from 10% acetonitrile to 90% acetonitrile—the corresponding data are labelled in Table 1 with ^a).
(b) Mobile phases for the determination in the neutral range: 0.01 molar aqueous phosphate buffer solution, acetonitrile; linear gradient from 10% acetonitrile to 90% acetonitrile—corresponding data are labelled in Table 1 with ^b).
Calibration was carried out using unbranched alkan-2-ones (with from 3 to 16 carbon atoms) whose logP values are known (determination of the logP values by the retention times using linear interpolation between two successive alkanones).

Abutilon = test: Pre-emergence test/greenhouse; format: in vivo; conditions: 500 g of ai./ha, rated after three weeks vs untreated control
Procedure: (§1) Solvent: 5 parts by weight of acetone
(§2) Emulsifier: 1 part by weight of alkylaryl polyglycol ether
(§3) To produce a suitable preparation of active compound, 1 part by weight of active compound is mixed with the stated amount of solvent, the stated amount of emulsifier is added and the concentrate is diluted with water to the desired concentration.
(§4) Seeds of the test plants are sown in normal soil. After about 24 hours, the soil is sprayed with the preparation of active compound such that the particular amount of active compound desired is applied per unit area. The concentration of the spray liquor is chosen so that the particular amount of active compound desired is applied in 1000 litre of water per hectare.
(§5) After three weeks, the degree of damage to the plants is rated in % damage in comparison to the development of the untreated control.
(§6) 0%=no effect (like untreated control)

Alopecurus [2] = test: Pre-emergence test/greenhouse; format: in vivo; conditions: 500 g of ai./ha, rated after three weeks vs untreated control
Procedure: as §1, §2, §3, §4, §5, §6

Amaranthus [3] = test: Pre-emergence test/greenhouse; format: in vivo; conditions: 500 g of ai./ha, rated after three weeks vs untreated control
Procedure: as §1, §2, §3, §4, §5, §6

Galium = test: Pre-emergence test/greenhouse; format: in vivo; conditions: 500 g of ai./ha, rated after three weeks vs untreated control
Procedure: as §1, §2, §3, §4, §5, §6

Setaria [4] = test: Pre-emergence test/greenhouse; format: in vivo; conditions: 500 g of ai./ha, rated after three weeks vs untreated control
Procedure: as §1, §2, §3, §4, §5, §6

Alopecurus [5] = test: Post-emergence test/greenhouse; format: in vivo; conditions: 500 g of ai./ha, rated after three weeks vs untreated control
Procedure: as §1, §2, §3
(§7) Test plants which have a height of 5-15 cm are sprayed with the preparation of active compound such that the particular amounts of active compound desired are applied per unit area. The concentration of the spray liquor is chosen so that the particular amounts of active compound desired are applied in 1000 l of water/ha.
as §5, §6

Amaranthus [6] = test: Post-emergence test/greenhouse; format: in vivo; conditions: 500 g of ai./ha, rated after three weeks vs untreated control
Procedure: as §1, §2, §3, §7, §5, §6

Setaria [7] = test: Post-emergence test/greenhouse; format: in vivo; conditions: 500 g of ai./ha, rated after three weeks vs untreated control
Procedure: as §1, §2, §3, §7, §5, §6

Sinapis = test: Post-emergence test/greenhouse; format: in vivo; conditions: 500 g of ai./ha, rated after three weeks vs untreated control
Procedure: as §1, §2, §3, §7, §5, §6

Xanthium = test: Post-emergence test/greenhouse; format: in vivo; conditions: 500 g of ai./ha, rated after three weeks vs untreated control
Procedure: as §1, §2, §3, §7, §5, §6

weeds [8] = test: Pre-emergence test, overall statement; format: in vivo
Procedure: as §1, §2, §3, §4, §5, §6

weeds [9] = test: Post-emergence test, overall statement; format: in vivo
Procedure: as §1, §2, §3, §7, §5, §6

SMILES: CC(F)c1nc(N)nc(NC2CCCc3sccc32)n1 (centres unmarked) [Example 1, 2-amino-4-(1-fluoro-ethyl)-6-(4,5,6,7-tetra-hydrobenzo[b]thiophen-4-yl-amino)-1,3,5-triazine]
- chromatographic logP [1]: 4.26
- % damage Abutilon (Abutilon): 95%
- % damage Alopecurus (Alopecurus [2]): 100%
- % damage Amaranthus (Amaranthus [3]): 100%
- % damage Galium (Galium): 90%
- % damage Setaria (Setaria [4]): 100%
- % damage Alopecurus (Alopecurus [5]): 95%
- % damage Amaranthus (Amaranthus [6]): 100%
- % damage Setaria (Setaria [7]): 100%
- % damage Sinapis (Sinapis): 100%
- % damage Xanthium (Xanthium): 100%
- activity against weeds (weeds [8]): strong activity
- activity against weeds (weeds [9]): strong activity

SMILES: [H]/N=C(/N)N/C(=N/[H])NC1CCCc2sc(C)cc21 (centres unmarked) [Example II-1, 2-methyl-4,5,6,7-tetrahydrobenzo[b]thiophen-4-yl-biguanide hydrochloride]
- chromatographic logP [1]: 1.12
